From US20080145343A1, “Conjugates of biologically active compounds, methods for their preparation and use, formulation and pharmaceutical applications thereof” (priority 2002, published 2008)
Read-outs that look alike come from different tables or passages of the source.

Legend:
E. coli (DH5α) = test: Testing of antibiotic activity (TC50, dilution assay, turbidity); assay type: cell-based; details: concentration that inhibits 50% of the growth
Experimental: The TC50 or MIC procedure for antibiotic sensitivity testing involves an antibiotic dilution assay, which can be performed in microtitre plates. A series of twofold dilutions of each antibiotic are made in the wells, and then all wells are inoculated with a standard amount of the same test organism. After incubation, growth in the presence of the various antibiotics is observed by measuring turbidity.
Bacteria: B. pumilus and E. coli (DH5α) Bacterial cultures are initiated from the plates for 2 to 3 weeks. After this time period bacteria are streaked out on new plates from the backups stored at −80° C. Due to the lack of resistance of the bacteria, new cultures are not to be initiated from an old plate or any liquid cultures derived from old plates. Growth medium (GM) (per liter): 10 g Bacto-tryptone, 5 g Bacto-yeast extract, 6 g HEPES (25 mM), 5.4 g NaCl, pH 7.3 Compound stocks 10 or 100 mM in DMSO stored at −20° C.
• 1. Grow B. pumilus from an LB agar plate in a flask (max. 10% volume) up to about 50 ml in growth medium (GM) • 2. Dilute overnight suspension 1:10 in GM • 3. Determine OD600 of diluted bacterial suspension • 4. Dilute bacterial suspension in GM to an OD600 of 0.03-0.04. (6 ml/plate) • 5. Add 200 μl GM to the outer wells (Row A, Row H, Column 1, Column 12) • 6. Add 100 μl GM to each well starting from C2, row 3. • 7. Controls: Wells B2-B4 growth control. Wells B6-B8 blank. Row C growth inhibition control. • 7.1. To wells B2-B4 add: 96 μl GM, 4 μl DMSO, and 100 μl bacterial suspension adjusted to an OD600 of 0.03-0.04. • 7.2. To wells B6-B8 add: 196 μl GM and 4 μl DMSO • 7.3. Dilute a 10 mM Compound 43 (positive control) stock to 800 μM (120 μl/plate) in GM. Add 100 μl of 800 μM Compound 43 solution to well C2. • 8. Samples • 8.1. Dilute the 10 or 100 mM stock solutions to 800 μM (250 μl/plate) in GM. • 8.2. Add 100 μl of 800 μM sample in duplicates to wells D2/E2 resp. F2/G2. • 8.3. 2-fold serial dilution of all samples and Azithromycin • 8.3.1. Rows C-G, Columns 2: Mix and transfer 100 μl from each row to Column 3, and continue until column 11. The remaining 100 μl out of column 11 are disposed. • 9. Add 100 μl of bacterial suspension (OD600 0.03-0.04) to each well from C2-G11. • 10. Incubate plates on shaker, 750 rpm, 37° C., until the growth controls have reached an OD600 of 0.6-0.8 (approximately 6-8 h).
11. Determine OD600 on plate reader.

lymphocytes = test: Proliferation assay (BrdU ELISA, phytohemagglutanin-stimulated); assay type: cell-based, mammalian; details: for Ratio (2 h:72 h): IC50 at 2 h : IC50 at 72 h, lower = better uptake and release; for IC50: Lymphocyte
Excerpt: Assay to determine the in vitro rate of, for example, lymphocyte proliferation. Lymphocytes are purified out of ant coagulated (CPDA, citrate or heparin) mammalian blood using the Lymphoprep™ system (supplier). Purified cells are counted using a hemocytometer following Trypan Blue staining, and a cell concentration of 1×10^6 cells/ml established in RPMi 1640 medium with 10% FCS and antibiotics as required (all from Biochrome). Following the addition of a cell proliferation stimulant, for example phytohemagglutanin (Sigma) at, for example an end concentration of 5 μg/ml, the cells are incubated with different concentrations of the to be investigated compound in 100 μl end volume in a 96-well microtiter plate in an incubator (37° C., 5% CO2, 95% humidity) for 72 h. Cell proliferation is quantified following BrdU incorporation for 16 h by ELISA and subsequent calorimetric development (Cell Proliferation ELISA BrdU (colorimetric) kit from Roche Diagnostics). The IC50 (μM) values are then calculated, and used to compare compound efficacy.
To determine the influence of the T-L-C modification on in vitro cellular drug uptake and pharmacology, the above assay is additionally modified and an additional “wash” step included. In addition to running the assay for 72 h with the compounds to be tested, the assay is also run for just 2 h, then compound is washed away in three serial washing steps using 200 μl of medium at each step, and the cells subsequently incubated for a further 70 h. […] The lower the number, the better the uptake and drug release from the T-L-C in the cells (see results in Table 4 for examples), and improvement over mycophenolic acid.

white blood cells = test: Immune cell selective uptake from blood cell mix (immune selectivity ratio method); assay type: cell-based, mammalian
Experimental: Freshly drawn heparinised blood or buffy coat preparations are used for the determination of immune cell partition ratios. Buffy coat preparations are preferred. These may be obtained from donor blood by simple centrifugation of whole blood (4795 g for 10 minutes). Following centrifugation, plasma is collected from the surface, after which immune cells are expressed from the donor bags along with the erythrocytes lying immediately below the leukocyte layer. This ensures high yields and a sufficient population of erythrocytes for partition. 5 ml of the resulting cell suspension are dispensed into T25 culture flasks. Substrates are added to a final concentration between 1 and 10 μM and the suspensions incubated at 37° C., in a 5% CO2 atmosphere. For analysis of uptake kinetics, samples are withdrawn at 0, 2, 5, 10, 30, 60, 90, 180, or 240 min after substrate addition. For screening purposes, samples are taken at 0 and 120 minutes. […]
Uptake of fluorescent compounds is monitored using fluorescence microscopy. Excitation and emission wavelengths depend of the fluorescence label in use. […]
Cell lysates are analysed using a HP 1100 HPLC System (Agilent Technologies, Waldbronn, Germany) with a Kromasil 3.5μ C18, 50×2.0 mm column and guard cartridge system (both, Phenomenex, Aschaffenburg, Germany) run at 30° C. […]
Masses are monitored according to the known or expected M/Z ratios. […]

HeLa or JURKAT = test: Cytotoxicity assay (Alamar Blue) with guanosine rescue; assay type: cell-based
Experimental: HeLa cells (DSMZ, ACC 57) and Jurkat cells (DSMZ, ACC 282) in exponential growth phase are exposed for 3 days to test compounds. The number of surviving cells is then determined by the Alamar Blue assay (Serotec Inc.). This assay incorporates a fluorometric growth indicator based on detection of metabolic activity. Specifically, the system incorporates an oxidation-reduction indicator that fluoresces in response to chemical reduction of the growth medium resulting from cell growth. As cells grow in culture, innate metabolic activity results in a chemical reduction of the immediate surrounding environment. Continued growth maintains a reduced environment while inhibition of growth maintains an oxidized environment. […] Fluorescence is monitored at 560 nm (Exc.) and 590 nm Em.
HeLa cells (1×10^3) or JURKAT cells (1×10^3) are plated in 100 μl MEM medium (with Earle's salt; Biochrom KG) containing 10% FBS, 2 mM L-glutamine, and non-essential animo acids in 96-well plates and incubated at 37° C. and 5% CO2 atmosphere. […] The fluorescence is then measured as described above and the LD50 is determined based on a sigmoidal dose response regression. […] Any toxicity still detected can then be ascribed either to other biological effects of the of T-L-C conjugate of mycophenolic acid, or is due to the very high intracellular concentration of mycophenolic acid, following concentrative uptake into the cell.

[1] = read-out: IC50 (μM) at 2 h, 2 h with compound, washed away, further 70 h incubation
[2] = 72 h incubation with compound, read-out: IC50 (μM) at 72 h

| SMILES | TC50 in E. coli (E. coli (DH5α)) | Ratio (2 h:72 h) (lymphocytes) | IC50 (lymphocytes; [1]) | IC50 (lymphocytes; [2]) | further results |
| --- | --- | --- | --- | --- | --- |
| CC[C@H]1OC(=O)[C@H](C)C(=O)[C@H](C)[C@@H](O[C@@H]2O[C@H](C)CC(N(C)C)[C@H]2O)[C@](C)(O)C[C@@H](C)CN(C)[C@H](C)[C@@H](O)[C@]1(C)O (some centres unmarked) [Compound 40] | >50 µM |  |  |  |  |
| CC[C@H]1OC(=O)[C@H](C)[C@@H](O[C@H]2C[C@@](C)(OC)[C@@H](O)[C@H](C)O2)[C@H](C)[C@@H](O[C@@H]2O[C@H](C)CC(N(C)C)[C@H]2OC(=O)CC/C(C)=C/Cc2c(O)c3c(c(C)c2OC)COC3=O)[C@](C)(O)C[C@@H](C)CN(C)[C@H](C)[C@@H](O)[C@]1(C)O (some centres unmarked) [Compound 67] |  | 1.3 | 1.74 µM | 1.36 µM |  |
| CC[C@H]1OC(=O)[C@H](C)[C@@H](OC2C[C@@](C)(OC)[C@@H](O)[C@H](C)O2)[C@H](C)[C@@H](OC2O[C@H](C)C[C@H](N(C)C)[C@H]2O)[C@](C)(O)C[C@@H](C)/C(=N/OCc2cc(=O)oc3cc(OC)c(OC)cc23)[C@H](C)[C@@H](O)[C@]1(C)O (some centres unmarked) [Compound 3] |  |  |  |  | intracellular distribution (white blood cells; polymorphonuclear cells, fluorescent image (FIG. 3)): even distribution with some concentration near the nucleus |
| COc1cc(C)c(/C(=C\C(C)=O)CC(N)C(=O)O)cc1OC (centres unmarked) [Compound 4] |  |  |  |  | uptake speed (white blood cells; fluorescent compounds, images during uptake): uptake is rapid |
| CCOC(=O)CC/C(C)=C/Cc1c(CC(=O)CCC(=O)O[C@@H]2C(N(C)C)C[C@@H](C)O[C@H]2O[C@@H]2[C@@H](C)[C@H](O[C@H]3C[C@@](C)(OC)[C@@H](O)[C@H](C)O3)[C@@H](C)C(=O)O[C@H](CC)[C@@](C)(O)[C@H](O)[C@@H](C)N(C)C[C@H](C)C[C@@]2(C)O)c2c(c(C)c1OC)COC2=O (some centres unmarked) [Compound 69] |  | 1.9 | 2.66 µM | 1.4 µM |  |
| COc1c(C)c2c(c(O)c1C/C=C(\C)CCC(=O)O)C(=O)OC2 [Mycophenolic acid] |  |  |  |  | effect in the presence of guanosine (HeLa or JURKAT; 50 μM guanosine): completely removed; IC50 (HeLa or JURKAT; normal culture conditions): < 2 µM |
| CC[C@H]1OC(=O)[C@H](C)[C@@H](C)[C@H](C)[C@@H](O[C@@H]2O[C@H](C)C[C@@H](N(C)CCOC(=O)CC/C(C)=C/Cc3c(O)c4c(c(C)c3OC)COC4=O)[C@@H]2N(C)C)[C@](C)(O)C[C@@H](C)CN(C)[C@H](C)[C@@H](O)[C@]1(C)O [Compound 74] |  | 1.45 | 3.2 µM | 2.2 µM |  |
| CC[C@H]1OC(=O)[C@H](C)[C@@H](O[C@H]2C[C@@](C)(OC)[C@@H](O)[C@H](C)O2)[C@H](C)[C@@H](O[C@@H]2O[C@H](C)CC(N(C)C(=O)CN(C)CCO)[C@H]2O)[C@](C)(O)C[C@@H](C)CN(C)[C@H](C)[C@@H](O)[C@]1(C)O (some centres unmarked) [Compound 45] | >50 µM |  |  |  |  |
| CC[C@H]1OC(=O)[C@H](C)[C@@H](O[C@H]2C[C@@](C)(OC)[C@@H](O)[C@H](C)O2)[C@H](C)[C@@H](O[C@@H]2O[C@H](C)C[C@H](N(C)C)[C@H]2O)[C@](C)(O)C[C@@H](C)CN(C)[C@H](C)[C@@H](O)[C@]1(C)O [Compound 43, 9a-aza-9a-methyl-9-deoxo-9a-homoerythromycin A, reference compound] | 2.3 µM |  |  |  |  |
| CC[C@H]1OC(=O)[C@H](C)C(=O)[C@H](C)[C@@H](O[C@@H]2O[C@H](C)C[C@H](N(C)C)[C@H]2OC(=O)Cc2ccccc2Nc2c(Cl)cccc2Cl)[C@](C)(O)C[C@@H](C)CN(C)[C@H](C)[C@@H](O)[C@]1(C)O [Compound 53] | >50 µM |  |  |  |  |
